Reference: ChEMBL document CHEMBL1201862, “PubChem BioAssay data set” (2004)
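The compound was tested at five concentrations on cells cultured in 96-well plates, with a 48-hour exposure period. Here, GI50 denotes the concentration required for 50% inhibition of growth.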 Calls of active or inactive are those of the source. No stated cut-off is given here; in the data, active = GI50 up to about 1.1 µM and inactive = higher.

Key:
Assay in all cases: NCI-60 cell line screen, 48 h
DU-145 = system: DU-145
EKVX = system: EKVX
SF-295 = system: SF-295
SK-MEL-5 = system: SK-MEL-5
SF-268 = system: SF-268
ACHN = system: ACHN
UACC-257 = system: UACC-257
SK-MEL-28 = system: SK-MEL-28
PC-3 = system: PC-3
MOLT-4 = system: MOLT-4
NCI-H522 = system: NCI-H522
MDA-MB-231 = system: MDA-MB-231
HCT-15 = system: HCT-15
SNB-75 = system: SNB-75
Malme-3M = system: Malme-3M
SF-539 = system: SF-539
U-251 = system: U-251
MDA-N = system: MDA-N
A498 = system: A498
MDA-MB-435 = system: MDA-MB-435

| Structure (SMILES) | GI50 (DU-145) | GI50 (EKVX) | GI50 (SF-295) | GI50 (SK-MEL-5) | GI50 (SF-268) | GI50 (ACHN) | GI50 (UACC-257) | GI50 (SK-MEL-28) | GI50 (PC-3) | GI50 (MOLT-4) | GI50 (NCI-H522) | GI50 (MDA-MB-231) | GI50 (HCT-15) [µM] | GI50 (SNB-75) | GI50 (Malme-3M) | GI50 (SF-539) | GI50 (U-251) | GI50 (MDA-N) | GI50 (A498) | GI50 (MDA-MB-435) |
| --- | --- | --- | --- | --- | --- | --- | --- | --- | --- | --- | --- | --- | --- | --- | --- | --- | --- | --- | --- | --- |
| CC12CCC(=O)[C@@]1(C)CCCC2=O (stereo not given in full) | > 100 µM (inactive) | > 100 µM (inactive) | > 100 µM (inactive) | > 10 µM (inactive) | > 100 µM (inactive) | > 100 µM (inactive) | > 100 µM (inactive) | > 100 µM (inactive) | > 100 µM (inactive) | > 100 µM (inactive) | > 100 µM (inactive) | > 100 µM (inactive) | > 100 | > 10 µM (inactive) | > 100 µM (inactive) | > 100 µM (inactive) | > 100 µM (inactive) | > 100 µM (inactive) |  |  |
| CN(C)c1ccc(/C=C2\C[C@H]3[C@@H]4CC=C5C[C@@H](O)CC[C@]5(C)[C@H]4CC[C@]3(C)C2=O)cc1 | 44 µM (inactive) | 23.6 µM (inactive) | 25.6 µM (inactive) | 50.7 µM (inactive) | 13 µM (inactive) | 16.2 µM (inactive) | 19.9 µM (inactive) | 16.2 µM (inactive) | 13.4 µM (inactive) | 79.3 µM (inactive) |  | 18 µM (inactive) | 34.5 | 23.2 µM (inactive) | 19.5 µM (inactive) | 9.2 µM (inactive) | 12.9 µM (inactive) | 32.4 µM (inactive) | 20.9 µM (inactive) |  |
| CC1(C)CN=C(Nc2ccc(F)c(Cl)c2)S1 | > 100 µM (inactive) | > 100 µM (inactive) | > 100 µM (inactive) | > 100 µM (inactive) | > 100 µM (inactive) | > 100 µM (inactive) | > 100 µM (inactive) | > 100 µM (inactive) | > 100 µM (inactive) | > 100 µM (inactive) | > 100 µM (inactive) |  | > 100 | > 100 µM (inactive) | > 100 µM (inactive) | > 100 µM (inactive) | > 100 µM (inactive) | > 100 µM (inactive) |  | > 100 µM (inactive) |
| O=S(=O)(O)c1ccccc1/N=N\c1ccc(/N=N/c2c(O)ccc3ccccc23)c(S(=O)(=O)O)c1 | > 100 µM (inactive) | > 100 µM (inactive) | > 100 µM (inactive) | > 100 µM (inactive) | > 100 µM (inactive) | > 100 µM (inactive) | > 100 µM (inactive) | > 100 µM (inactive) | > 100 µM (inactive) | > 100 µM (inactive) | > 100 µM (inactive) | > 100 µM (inactive) | > 100 | > 100 µM (inactive) | 19.4 µM (inactive) |  | > 100 µM (inactive) |  |  | > 100 µM (inactive) |
| Cc1cn(CCOCCOC(=O)NC(CCCNC(N)=O)C(=O)O)c(=O)[nH]c1=O (stereo not given) | > 100 µM (inactive) | > 100 µM (inactive) | > 100 µM (inactive) |  | > 100 µM (inactive) | > 100 µM (inactive) | > 100 µM (inactive) | > 100 µM (inactive) | > 100 µM (inactive) | > 100 µM (inactive) |  | > 100 µM (inactive) | > 100 | > 100 µM (inactive) |  | > 100 µM (inactive) | > 100 µM (inactive) | > 100 µM (inactive) |  | > 100 µM (inactive) |
| CN(Cc1nc2c(N)nc(N)nc2nc1N)c1ccc(C(=O)NC(CCC(=O)O)C(=O)O)cc1 (stereo not given) | 0.254 µM (active) |  | 0.162 µM (active) | 1.55 µM (inactive) | 0.299 µM (active) | 0.041 µM (active) | 5.58 µM (inactive) | > 76.4 µM (inactive) | < 0.01 µM (active) | < 0.0163 µM (active) | > 33.6 µM (inactive) | > 100 µM (inactive) | 0.0708 | 7.45 µM (inactive) |  | 0.0378 µM (active) | 0.494 µM (active) | 0.0442 µM (active) |  | 0.0277 µM (active) |
| CC(C)c1cccc(=O)c(O)c1 |  | 5.78 µM (inactive) | 3.39 µM (inactive) | 2.1 µM (inactive) | 1.38 µM (inactive) | 1.87 µM (inactive) | 1.66 µM (inactive) | 1.5 µM (inactive) |  | 1.02 µM (active) | 1.39 µM (inactive) |  | 1.54 | 6.18 µM (inactive) | 1.35 µM (inactive) | 3.21 µM (inactive) | 0.411 µM (active) | 2.18 µM (inactive) | 14.6 µM (inactive) |  |
| NNC(=O)/C(=C/c1cccc([N+](=O)[O-])c1)NC(=O)c1ccccc1 |  | < 0.01 µM (active) | > 100 µM (inactive) | > 100 µM (inactive) | > 100 µM (inactive) | > 100 µM (inactive) | > 100 µM (inactive) | > 100 µM (inactive) |  | > 100 µM (inactive) | > 100 µM (inactive) |  | > 100 | > 100 µM (inactive) | > 100 µM (inactive) | > 100 µM (inactive) | > 100 µM (inactive) |  | > 100 µM (inactive) |  |
| CO/N=C(/C)c1cccc(Nc2nc3ccccc3c3[nH]c4ccccc4c23)c1 | 12.5 µM (inactive) |  | 3.5 µM (inactive) | 5.62 µM (inactive) | 12.3 µM (inactive) | 3.57 µM (inactive) | 13.3 µM (inactive) |  | 10.4 µM (inactive) | 3.96 µM (inactive) | 2.99 µM (inactive) | 12.1 µM (inactive) | 5.92 | 0.302 µM (active) |  | 14.4 µM (inactive) | 13.5 µM (inactive) | 8.3 µM (inactive) |  | 7.41 µM (inactive) |
| COc1ccc2c(c1OC)C(C=C(c1ccccc1)c1ccccc1)CN(C)C2 (stereo not given) |  | 35.3 µM (inactive) | 16.2 µM (inactive) | 15.8 µM (inactive) | 27.1 µM (inactive) | 24.4 µM (inactive) | 21.8 µM (inactive) | 22.4 µM (inactive) |  | 31.6 µM (inactive) | 17.2 µM (inactive) |  | 15 | 34.3 µM (inactive) | 20.2 µM (inactive) | 21.9 µM (inactive) | 20 µM (inactive) |  | 17 µM (inactive) |  |
| O=C1CCCC2=C1CC1=C(CCCC1=O)N2c1ccc([N+](=O)[O-])cc1 |  | > 100 µM (inactive) |  | > 100 µM (inactive) | > 100 µM (inactive) | > 100 µM (inactive) |  | > 100 µM (inactive) | > 100 µM (inactive) | > 100 µM (inactive) |  |  | > 100 | > 100 µM (inactive) |  | > 100 µM (inactive) | > 100 µM (inactive) |  | > 100 µM (inactive) |  |
| Cc1ccc2nc(-c3ccccc3)c(N=O)n2c1 | 46.6 µM (inactive) | 20.5 µM (inactive) | 87.1 µM (inactive) | 46.3 µM (inactive) | 69.2 µM (inactive) | 46.9 µM (inactive) | 37 µM (inactive) | 45.9 µM (inactive) | 62.7 µM (inactive) | 28.4 µM (inactive) | 36.1 µM (inactive) | 17.4 µM (inactive) | 34 | 76.7 µM (inactive) | 29.5 µM (inactive) | 29.2 µM (inactive) | 38.9 µM (inactive) |  | > 100 µM (inactive) | 40 µM (inactive) |
| COc1ccc(S(=O)(=O)Nc2ccccc2C(=O)O)cc1 |  | > 100 µM (inactive) | > 100 µM (inactive) | > 100 µM (inactive) | > 100 µM (inactive) | > 100 µM (inactive) | > 100 µM (inactive) | > 100 µM (inactive) |  | > 100 µM (inactive) | > 100 µM (inactive) |  | > 100 | 68.1 µM (inactive) | > 100 µM (inactive) | > 100 µM (inactive) | > 100 µM (inactive) |  | > 100 µM (inactive) |  |
| N/C(=N\O)N/N=C/c1cccc(F)c1 |  | 37.1 µM (inactive) | 37.8 µM (inactive) | 14.8 µM (inactive) | 21.6 µM (inactive) | 27.7 µM (inactive) | 52.4 µM (inactive) | > 100 µM (inactive) |  | 43.5 µM (inactive) | 29.5 µM (inactive) |  | 50.9 | 52.6 µM (inactive) | 37.3 µM (inactive) | 28.9 µM (inactive) | 36.1 µM (inactive) |  | 40 µM (inactive) |  |
| CC(=O)NNC(=S)N/C=C1/C(=O)C=C(C)OC1=O | > 100 µM (inactive) | > 100 µM (inactive) | > 100 µM (inactive) | > 100 µM (inactive) |  | > 100 µM (inactive) | > 100 µM (inactive) | > 100 µM (inactive) | > 100 µM (inactive) | > 100 µM (inactive) |  | > 100 µM (inactive) | > 100 | > 100 µM (inactive) |  | > 100 µM (inactive) | > 100 µM (inactive) | > 100 µM (inactive) |  | > 100 µM (inactive) |
| CCOC(=O)/C(C#N)=C(O)/C(=C/c1ccccc1Cl)NC(=O)c1ccccc1 |  | > 100 µM (inactive) | > 100 µM (inactive) | > 100 µM (inactive) | > 100 µM (inactive) | > 100 µM (inactive) | > 100 µM (inactive) | > 100 µM (inactive) |  | > 100 µM (inactive) | 0.0195 µM (active) |  | 27.7 | > 100 µM (inactive) | > 100 µM (inactive) | > 100 µM (inactive) | > 100 µM (inactive) |  | > 100 µM (inactive) |  |
| COC(=O)/C=C\S/C(=C(/c1ccccc1)n1ccc(C(=O)OC)n1)c1ccccc1 |  | 26.5 µM (inactive) | 20.3 µM (inactive) | 29.5 µM (inactive) | 20.5 µM (inactive) | 7.48 µM (inactive) | 45.3 µM (inactive) | 28.6 µM (inactive) | 16.7 µM (inactive) | 56.6 µM (inactive) | 24.5 µM (inactive) | 9.82 µM (inactive) | > 100 | 6.04 µM (inactive) | 23.7 µM (inactive) | 40.2 µM (inactive) | 13 µM (inactive) |  |  | 45.4 µM (inactive) |
